According to article PMC8449129, “Single tracer-based protocol for broad-spectrum kinase profiling in live cells with NanoBRET” (STAR Protocols, 2021):

Assays:
Assay in all cases: cell-based
Parameters in all cases: NanoBRET live-cell target engagement; % occupancy from displacement of tracer K10 on NanoLuc-kinase fusions, mean n=3
Conditions in all cases: HEK293, read-out: % inhibition
CSNK2A2 = CSNK2A2 (Homo sapiens, UniProt P19784)
Procedure: (§1) • 18. Prepare 10× test compounds in OptiMEM • a. Dilute the test compound to 1000× in DMSO (or the test compound solvent). […] Add 10μL per well of 10× test compound or 10μL of the DMSO control to the 96-well plates containing cells with 1× tracer. Mix on orbital shaker for 15 s at 900 rpm. • 20. Incubate the plate at 37°C + 5% CO2 incubator for 2hr. Allow plate to cool to RT for ∼15 min, then proceed to NanoBRET^TM Assay section below. • 21. Immediately before the BRET measurements, prepare 3× Complete NanoBRET^TM Nano-Glo® Substrate in OptiMEM without serum or phenol red. […] Mix gently by inverting 5–10 times in a conical tube. (The final concentration of Extracellular NanoLuc inhibitor in the 3× solution is 60 μM, for a working concentration of 20 μM.) • a. Note: 3× solutions should be used within 1.5 h after preparation. • 22. […] Incubate 2–3 min at RT. Following addition of NanoBRET^TM Nano-Glo® Substrate, measure donor emission (e.g., 450 nm) and acceptor emission (e.g., 610 nm or 630 nm) using a NanoBRET™-compatible luminometer. Fractional occupancy Quantitation • 2. Determine Fractional Occupancy with the following equation; % Occupancy = [1 – (X – Z)/( Y – Z)]∗100 • Where: • X = BRET in the presence of the test compound and tracer, • Y = BRET in the presence of the 100% BRET Control (Tracer + DMSO) • Z = BRET for the Zero BRET Control, e.g., • a. BRET from the NanoLuc Control Vector • b. BRET from Kinase/NanoLuc fusion + saturating dose of control test compound.

MAP4K1 = MAP4K1 (Homo sapiens, UniProt Q92918)
Procedure: as §1

RIOK2 = RIOK2 (Homo sapiens, UniProt Q9BVS4)
Procedure: as §1

RPS6KA6 = RPS6KA6 (Homo sapiens, UniProt Q9UK32)
Procedure: as §1

STK11 = STK11 (Homo sapiens, UniProt Q15831)
Procedure: as §1

MAPK9 = MAPK9 (Homo sapiens, UniProt P45984)
Procedure: as §1

PRKAA1 = PRKAA1 (Homo sapiens, UniProt Q13131)
Procedure: as §1

SIK3 = SIK3 (Homo sapiens, UniProt Q9Y2K2)
Procedure: as §1

CDKL3 = CDKL3 (Homo sapiens, UniProt Q8IVW4)
Procedure: as §1

RPS6KA3 = RPS6KA3 (Homo sapiens, UniProt P51812)
Procedure: as §1

STK36 = STK36 (Homo sapiens, UniProt Q9NRP7)
Procedure: as §1

PLK3 = PLK3 (Homo sapiens, UniProt Q9H4B4)
Procedure: as §1

LRRK2 = LRRK2 (Homo sapiens, UniProt Q5S007)
Procedure: as §1

MARK4 = MARK4 (Homo sapiens, UniProt Q96L34)
Procedure: as §1

CDK3 = CDK3 (Homo sapiens, UniProt Q00526)
Procedure: as §1

MAPK11 = MAPK11 (Homo sapiens, UniProt Q15759)
Procedure: as §1

BRAF(V600E) = BRAF(V600E) (Homo sapiens, UniProt P15056, V600E)
Procedure: as §1

MAP3K11 = MAP3K11 (Homo sapiens, UniProt Q16584)
Procedure: as §1

STK36, sequence (Q9NRP7 whole entry): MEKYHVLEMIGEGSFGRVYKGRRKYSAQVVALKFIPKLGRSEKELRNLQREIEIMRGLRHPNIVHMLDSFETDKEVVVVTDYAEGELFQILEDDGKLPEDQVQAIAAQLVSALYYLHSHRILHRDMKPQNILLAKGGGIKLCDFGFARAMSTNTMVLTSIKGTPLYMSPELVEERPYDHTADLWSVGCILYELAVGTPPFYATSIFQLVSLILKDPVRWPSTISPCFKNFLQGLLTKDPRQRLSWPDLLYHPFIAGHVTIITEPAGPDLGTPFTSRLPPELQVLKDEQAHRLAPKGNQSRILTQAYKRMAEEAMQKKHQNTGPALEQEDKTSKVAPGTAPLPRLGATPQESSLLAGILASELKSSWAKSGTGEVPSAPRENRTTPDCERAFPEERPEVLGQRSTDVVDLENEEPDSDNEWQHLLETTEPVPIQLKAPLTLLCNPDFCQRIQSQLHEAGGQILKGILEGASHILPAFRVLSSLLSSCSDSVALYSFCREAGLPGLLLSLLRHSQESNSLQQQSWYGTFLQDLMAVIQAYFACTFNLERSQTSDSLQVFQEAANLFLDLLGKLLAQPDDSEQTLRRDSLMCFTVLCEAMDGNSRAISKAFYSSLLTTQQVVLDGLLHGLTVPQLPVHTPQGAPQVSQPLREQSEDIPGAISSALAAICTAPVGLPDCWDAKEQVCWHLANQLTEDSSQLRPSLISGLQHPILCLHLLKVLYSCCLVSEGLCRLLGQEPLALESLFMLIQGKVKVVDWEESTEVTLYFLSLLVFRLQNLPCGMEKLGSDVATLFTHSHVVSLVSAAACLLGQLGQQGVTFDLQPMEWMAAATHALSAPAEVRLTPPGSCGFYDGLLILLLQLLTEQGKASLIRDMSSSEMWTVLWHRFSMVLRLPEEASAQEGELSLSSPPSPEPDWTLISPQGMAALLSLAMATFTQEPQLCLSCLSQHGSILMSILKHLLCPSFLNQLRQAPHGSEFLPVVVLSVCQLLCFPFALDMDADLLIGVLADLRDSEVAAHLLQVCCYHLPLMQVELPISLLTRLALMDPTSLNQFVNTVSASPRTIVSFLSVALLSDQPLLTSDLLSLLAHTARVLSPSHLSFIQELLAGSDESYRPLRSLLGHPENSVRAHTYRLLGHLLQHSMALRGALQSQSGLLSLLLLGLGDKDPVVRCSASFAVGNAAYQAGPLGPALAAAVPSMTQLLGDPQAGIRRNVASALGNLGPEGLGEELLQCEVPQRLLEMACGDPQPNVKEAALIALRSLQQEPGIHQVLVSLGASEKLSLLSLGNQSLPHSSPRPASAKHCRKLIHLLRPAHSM
CSNK2A2, sequence (P19784 whole entry): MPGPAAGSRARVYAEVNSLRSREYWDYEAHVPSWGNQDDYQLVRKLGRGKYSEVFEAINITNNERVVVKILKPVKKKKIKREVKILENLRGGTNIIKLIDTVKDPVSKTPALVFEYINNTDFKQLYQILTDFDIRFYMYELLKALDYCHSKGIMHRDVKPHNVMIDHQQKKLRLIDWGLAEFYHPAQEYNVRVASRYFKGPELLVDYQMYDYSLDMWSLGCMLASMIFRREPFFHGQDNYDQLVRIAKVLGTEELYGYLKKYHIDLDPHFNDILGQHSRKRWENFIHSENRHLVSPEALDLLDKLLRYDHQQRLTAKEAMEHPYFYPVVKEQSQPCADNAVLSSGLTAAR
CDK3, sequence (Q00526 whole entry): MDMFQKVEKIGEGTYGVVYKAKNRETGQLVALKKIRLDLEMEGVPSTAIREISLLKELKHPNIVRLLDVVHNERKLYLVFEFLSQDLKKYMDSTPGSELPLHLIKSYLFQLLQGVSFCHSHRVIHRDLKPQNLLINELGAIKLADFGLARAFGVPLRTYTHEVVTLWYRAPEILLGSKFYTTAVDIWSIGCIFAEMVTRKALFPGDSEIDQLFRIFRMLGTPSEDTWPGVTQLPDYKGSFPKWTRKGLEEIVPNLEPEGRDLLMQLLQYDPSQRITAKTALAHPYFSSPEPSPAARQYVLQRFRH
RIOK2, sequence (Q9BVS4 whole entry): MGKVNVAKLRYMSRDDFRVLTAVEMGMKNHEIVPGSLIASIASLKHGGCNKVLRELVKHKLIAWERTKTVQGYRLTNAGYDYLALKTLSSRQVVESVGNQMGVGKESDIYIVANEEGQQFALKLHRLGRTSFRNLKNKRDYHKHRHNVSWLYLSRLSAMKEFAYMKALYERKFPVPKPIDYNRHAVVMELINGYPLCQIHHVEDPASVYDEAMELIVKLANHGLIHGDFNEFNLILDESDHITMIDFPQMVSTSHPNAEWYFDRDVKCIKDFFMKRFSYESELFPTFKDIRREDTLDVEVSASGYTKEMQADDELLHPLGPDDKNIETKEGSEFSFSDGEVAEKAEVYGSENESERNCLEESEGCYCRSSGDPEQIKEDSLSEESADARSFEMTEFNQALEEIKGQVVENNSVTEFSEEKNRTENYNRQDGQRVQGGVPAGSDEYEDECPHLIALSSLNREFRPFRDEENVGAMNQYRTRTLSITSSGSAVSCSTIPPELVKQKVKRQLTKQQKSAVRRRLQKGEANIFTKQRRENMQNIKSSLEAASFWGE
MAPK9, sequence (P45984 whole entry): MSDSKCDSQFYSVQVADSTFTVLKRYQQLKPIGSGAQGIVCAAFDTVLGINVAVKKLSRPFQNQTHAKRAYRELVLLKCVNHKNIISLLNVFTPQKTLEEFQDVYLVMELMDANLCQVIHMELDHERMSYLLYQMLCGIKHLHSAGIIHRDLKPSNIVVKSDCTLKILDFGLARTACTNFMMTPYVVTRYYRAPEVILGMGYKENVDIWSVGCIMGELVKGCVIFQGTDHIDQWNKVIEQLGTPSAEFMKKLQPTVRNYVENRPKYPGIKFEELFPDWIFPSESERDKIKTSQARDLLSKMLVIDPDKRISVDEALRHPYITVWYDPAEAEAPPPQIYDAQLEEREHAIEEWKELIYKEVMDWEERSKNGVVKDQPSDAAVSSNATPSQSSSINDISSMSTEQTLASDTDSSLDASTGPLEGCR
MAP3K11, sequence (Q16584 whole entry): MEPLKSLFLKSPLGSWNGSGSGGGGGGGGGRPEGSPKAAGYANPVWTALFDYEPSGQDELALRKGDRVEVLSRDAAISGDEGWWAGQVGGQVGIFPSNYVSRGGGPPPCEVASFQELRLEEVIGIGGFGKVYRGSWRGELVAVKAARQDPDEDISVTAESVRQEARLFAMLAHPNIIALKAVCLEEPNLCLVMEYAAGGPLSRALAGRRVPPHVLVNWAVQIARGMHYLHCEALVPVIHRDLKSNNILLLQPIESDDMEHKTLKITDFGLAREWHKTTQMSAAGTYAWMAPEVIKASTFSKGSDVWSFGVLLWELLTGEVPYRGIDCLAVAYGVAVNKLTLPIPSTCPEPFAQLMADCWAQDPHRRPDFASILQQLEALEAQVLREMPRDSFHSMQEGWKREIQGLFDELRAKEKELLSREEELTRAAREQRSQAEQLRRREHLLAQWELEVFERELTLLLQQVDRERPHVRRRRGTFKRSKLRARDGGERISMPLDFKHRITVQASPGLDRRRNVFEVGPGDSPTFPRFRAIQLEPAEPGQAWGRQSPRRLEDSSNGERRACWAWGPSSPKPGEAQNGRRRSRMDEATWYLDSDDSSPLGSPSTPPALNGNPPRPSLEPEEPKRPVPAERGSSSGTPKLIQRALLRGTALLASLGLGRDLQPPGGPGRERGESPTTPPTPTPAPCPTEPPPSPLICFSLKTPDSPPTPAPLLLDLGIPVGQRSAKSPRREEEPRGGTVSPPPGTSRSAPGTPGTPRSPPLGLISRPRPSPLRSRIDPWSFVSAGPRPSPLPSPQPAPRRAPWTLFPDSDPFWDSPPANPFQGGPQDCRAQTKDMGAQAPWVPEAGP
PRKAA1, sequence (Q13131 whole entry): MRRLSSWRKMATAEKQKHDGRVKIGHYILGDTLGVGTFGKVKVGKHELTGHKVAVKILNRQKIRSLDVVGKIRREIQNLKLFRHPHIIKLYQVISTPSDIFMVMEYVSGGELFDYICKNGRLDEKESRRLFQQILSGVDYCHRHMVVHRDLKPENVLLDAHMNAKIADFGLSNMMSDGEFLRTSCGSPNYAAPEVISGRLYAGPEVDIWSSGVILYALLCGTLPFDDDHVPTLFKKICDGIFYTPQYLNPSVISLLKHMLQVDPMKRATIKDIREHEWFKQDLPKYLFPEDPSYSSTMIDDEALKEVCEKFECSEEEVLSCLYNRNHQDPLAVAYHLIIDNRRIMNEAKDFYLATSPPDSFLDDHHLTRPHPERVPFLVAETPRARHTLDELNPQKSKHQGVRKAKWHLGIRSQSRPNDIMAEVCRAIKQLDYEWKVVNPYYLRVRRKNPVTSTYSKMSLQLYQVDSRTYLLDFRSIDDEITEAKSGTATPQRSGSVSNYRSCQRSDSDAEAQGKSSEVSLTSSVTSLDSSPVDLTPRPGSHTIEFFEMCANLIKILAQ
PRKAA1, sequence (P54619 whole entry partner): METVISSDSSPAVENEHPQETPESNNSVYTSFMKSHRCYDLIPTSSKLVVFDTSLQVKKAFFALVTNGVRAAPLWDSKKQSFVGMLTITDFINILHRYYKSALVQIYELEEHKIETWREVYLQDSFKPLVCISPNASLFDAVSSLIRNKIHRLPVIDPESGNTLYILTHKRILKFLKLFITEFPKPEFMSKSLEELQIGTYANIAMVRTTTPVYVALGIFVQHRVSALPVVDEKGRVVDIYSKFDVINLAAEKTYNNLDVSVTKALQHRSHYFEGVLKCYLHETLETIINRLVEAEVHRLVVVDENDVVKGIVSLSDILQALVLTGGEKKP
PRKAA1, sequence (Q9Y478 whole entry partner): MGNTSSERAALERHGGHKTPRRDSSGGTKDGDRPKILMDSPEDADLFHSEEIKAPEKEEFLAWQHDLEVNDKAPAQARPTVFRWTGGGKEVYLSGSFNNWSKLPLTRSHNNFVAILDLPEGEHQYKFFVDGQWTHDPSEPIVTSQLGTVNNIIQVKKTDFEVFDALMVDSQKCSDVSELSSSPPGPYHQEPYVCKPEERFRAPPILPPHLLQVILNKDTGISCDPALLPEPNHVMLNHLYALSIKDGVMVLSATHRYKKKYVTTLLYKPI

An inhibition at 1 µM (CSNK2A2) of -14%, an inhibition at 1 µM (MAP4K1) of 14% and an inhibition at 1 µM (RIOK2) of 9% were found for C[C@@H](Oc1cc(-c2cnn(C3CCNCC3)c2)cnc1N)c1c(Cl)ccc(F)c1Cl [crizotinib] in this work. The inhibition at 1 µM (RPS6KA6) was -10%, the inhibition at 1 µM (STK11) was -1% and the inhibition at 1 µM (MAPK9) was -11%. For the same compound, the inhibition at 1 µM (PRKAA1) was -1%, the inhibition at 1 µM (SIK3) was 0% and the inhibition at 1 µM (CDKL3) was 8%. For the same compound, the inhibition at 1 µM (RPS6KA3) was -7%, the inhibition at 1 µM (STK36) was -6% and the inhibition at 1 µM (PLK3) was 4%. The inhibition at 1 µM (LRRK2) was -9%, the inhibition at 1 µM (MARK4) was -15% and the inhibition at 1 µM (CDK3) was 6%. The inhibition at 1 µM (MAPK11) was 0%, the inhibition at 1 µM (BRAF(V600E)) was -4% and the inhibition at 1 µM (MAP3K11) was 0%.
